In the supplement of paper PMC10307832:

Tests used:
Assay in all cases: relative viability (nuclei count vs DMSO), 5 days (fraction); higher = more cells survive
Decitabine + Olaparib = compound: Nc1ncn([C@H]2C[C@H](O)[C@@H](CO)O2)c(=O)n1 [Decitabine] + O=C(c1cc(Cc2n[nH]c(=O)c3ccccc23)ccc1F)N1CCN(C(=O)C2CC2)CC1 [Olaparib] (partner 8 µM)
Method in brief: (§1)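 Lung cancer cell lines, seeded in 1536-well plates, were treated the following day by pin tool with a single drug or with five library-drug doses (not always all listed) in √10 steps on top of a fixed anchor-drug dose. Cells were fixed and nuclei stained in one step after 5 days, and nuclei were counted. Relative viability is the nuclei count for treated wells divided by that for vehicle wells, reported as medians of duplicate plates.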

Cediranib + Foretinib = compound: COc1cc2c(Oc3ccc4[nH]c(C)cc4c3F)ncnc2cc1OCCCN1CCCC1 [Cediranib] + COc1cc2c(Oc3ccc(NC(=O)C4(C(=O)Nc5ccc(F)cc5)CC4)cc3F)ccnc2cc1OCCCN1CCOCC1 [Foretinib] (partner 0.25 µM)
Method in brief: as §1

[1] = compound: O=C(C[C@H]1NCCC[C@@H]1O)Cn1cnc2cc(Br)c(Cl)cc2c1=O (racemic) [Halofuginone] + CC1(C)CCC(c2ccc(Cl)cc2)=C(CN2CCN(c3ccc(C(=O)NS(=O)(=O)c4ccc(N[C@H](CCN5CCOCC5)CSc5ccccc5)c(S(=O)(=O)C(F)(F)F)c4)cc3)CC2)C1 [Navitoclax] (partner 0.5 µM)
Method in brief: as §1

Decitabine + Dasatinib = compound: Nc1ncn([C@H]2C[C@H](O)[C@@H](CO)O2)c(=O)n1 [Decitabine] + Cc1nc(Nc2ncc(C(=O)Nc3c(C)cccc3Cl)s2)cc(N2CCN(CCO)CC2)n1 [Dasatinib] (partner 0.075 µM)
Method in brief: as §1

Cell Line	relative viability (Decitabine + Olaparib; first compound 0.04 µM)	relative viability (Decitabine + Olaparib; first compound 0.1265 µM)	relative viability (Decitabine + Olaparib; first compound 0.4 µM)	relative viability (Decitabine + Olaparib; first compound 1.265 µM)	relative viability (Decitabine + Olaparib; first compound 4 µM)	relative viability (Cediranib + Foretinib; first compound 0.04 µM)	relative viability (Cediranib + Foretinib; first compound 0.4 µM)	relative viability (Cediranib + Foretinib; first compound 1.265 µM)	relative viability (Cediranib + Foretinib; first compound 4 µM)	relative viability ([1]; first compound 0.001 µM)	relative viability ([1]; first compound 0.003162 µM)	relative viability ([1]; first compound 0.01 µM)	relative viability ([1]; first compound 0.03162 µM)	relative viability ([1]; first compound 0.1 µM)	relative viability (Decitabine + Dasatinib; first compound 0.04 µM)	relative viability (Decitabine + Dasatinib; first compound 0.1265 µM)	relative viability (Decitabine + Dasatinib; first compound 0.4 µM)	relative viability (Decitabine + Dasatinib; first compound 1.265 µM)	relative viability (Decitabine + Dasatinib; first compound 4 µM)	relative viability (Cediranib + Foretinib; first compound 0.1265 µM)
BEN	0.666	0.595	0.457	0.43	0.409	0.745	0.707	0.344	0.682	0.0684	0.132	0.0701	0.0526	0.0549	0.373	0.406	0.225	0.251	0.218	
CAL-12T	0.438	0.412	0.257	0.266	0.227	1.1	1.09	1.12	1.2	1.54	1.37	1.24	0.974	0.565	0.356	0.477		0.212	0.235	1.02
COR-L23	0.166	0.181	0.177	0.143	0.119	0.943	0.916	1.05	1.09	1.03	1.1	1.03	0.976	0.126	0.255	0.347	0.29	0.161	0.18	0.938
COR-L 105	0.609	0.546	0.524	0.505	0.403	1.04	0.931	0.904	1.22	0.939	0.396	0.733	0.595	0.46	0.254	0.353	0.262	0.282	0.305	1.38
ChaGo-K-1	0.28	0.28	0.222	0.198	0.242	0.921	0.837	0.897	1	0.88	0.587	1.01	0.859	0.975	0.467	0.549	0.311	0.329	0.346	0.833
EKVX	0.551	0.454	0.322	0.252	0.232	0.67	0.74	0.705	0.751	1.06	0.971	0.984	0.905	0.797	0.479	0.494	0.368	0.36	0.329	0.418
EMC-BAC-2		0.405	0.371	0.298	0.294	1.04	0.984	0.991	1.03	1.14	1.29	1.14	1.13	0.87	0.334	0.343	0.343	0.284	0.26	1.11
